The source made the active and inactive calls. No cut-off for these calls is given here.
Tests used:
[1] = tested on: Hepatitis C virus; test: Inhibition of HCV NS3 protein expression infected in human Huh7.5 cells at 25 uM after 6 hrs by Western blot method relative to control; type: functional, Hepacivirus hominis; conditions: Huh7.5, 6 h
[2] = Cytotoxicity against human Huh7.5 cells infected with HCV assessed as reduction in cell viability at 5 to 25 uM after 6 hrs by CellTiter-Glo luminescent assay; type: cell-based; conditions: huh7.5, 6 h
[3] = tested on: Hepatitis C virus; test: Inhibition of HCV NS3 protein expression infected in human Huh7.5 cells at 10 uM after 6 hrs by Western blot method relative to control; type: functional, Hepacivirus hominis; conditions: Huh7.5, 6 h
[4] = tested on: Hepatitis C virus; test: Inhibition of HCV NS5A protein expression infected in human Huh7.5 cells at 5 to 25 uM after 6 hrs by Western blot method; type: functional, cell-based; conditions: Hepacivirus hominis
[5] = Cytotoxicity against human LX2 cells assessed as reduction in cell viability at 5 to 25 uM after 6 hrs by CellTiter-Glo luminescent assay; type: cell-based; conditions: lx2, 6 h
[6] = tested on: Hepatitis C virus; test: Inhibition of HCV NS3 protein expression infected in human Huh7.5 cells at 5 uM after 6 hrs by Western blot method relative to control; type: functional, Hepacivirus hominis; conditions: Huh7.5, 6 h
[7] = tested on: LX2; test: Antifibrotic activity against human LX2 cells assessed as inhibition of spindle shaped cells by measuring round shaped cells at 10 uM after 6 hrs by light microscopic method; type: functional, cell-based
[8] = tested on: LX2; test: Antifibrotic activity against human LX2 cells assessed as inhibition of spindle shaped cells by measuring round shaped cells at 25 uM after 6 hrs by light microscopic method; type: functional, cell-based

SMILES | inhibition at 25 µM [1] | Activity [2] | inhibition at 10 µM [3] | inhibition [4] | Activity [5] | inhibition at 5 µM [6] | inhibition [7] | inhibition [8]
CCN(CC)c1ccc2c(c1)Oc1nc(N)c(C#N)c(N)c1C2Sc1ccc(OC)cc1 (stereo unspecified) | 28% | Non-Toxic | 27% | inactive | Toxic | 47% | – | –
CCN(CC)c1ccc2c(c1)Oc1nc(N)c(C#N)c(N)c1C2Sc1ccc(F)cc1 (stereo unspecified) | 0% | Non-Toxic | 3% | inactive | Non-Toxic | 33% | Active | –
CCN(CC)c1ccc2c(c1)Oc1nc(N)c(C#N)c(N)c1C2Sc1ccc(SC)cc1 (stereo unspecified) | 45% | Non-Toxic | 35% | inactive | – | 29% | – | Active
CCN(CC)c1ccc2c(c1)Oc1nc(N)c(C#N)c(N)c1C2Sc1ccc(Cl)cc1 (stereo unspecified) | 47% | Non-Toxic | 34% | inactive | Toxic | 42% | – | –
CCN(CC)c1ccc2c(c1)Oc1nc(N)c(C#N)c(N)c1C2Sc1ccc(Br)cc1 (stereo unspecified) | 32% | Non-Toxic | 49% | inactive | Non-Toxic | 59% | Active | –
CCc1ccc(SC2c3ccc(N(CC)CC)cc3Oc3nc(N)c(C#N)c(N)c32)cc1 (stereo unspecified) | 19% | Non-Toxic | 0% | inactive | Non-Toxic | 47% | – | Active
CCN(CC)c1ccc2c(c1)Oc1nc(N)c(C#N)c(N)c1C2Sc1ccc(C)cc1 (stereo unspecified) | – | Non-Toxic | – | inactive | – | – | – | –
